In patent US11186602B2, “Glucopyranosyl derivative and use thereof” (SUNSHINE LAKE PHARMA CO., LTD., priority 2018, dated 2021):

Target: T1, human SGLT1 (Homo sapiens, UniProt P13866)
T1 construct: expressed in transfected cells; host or cells: CHO cells (Flp-in CHO)
T1 sequence (P13866 1-664): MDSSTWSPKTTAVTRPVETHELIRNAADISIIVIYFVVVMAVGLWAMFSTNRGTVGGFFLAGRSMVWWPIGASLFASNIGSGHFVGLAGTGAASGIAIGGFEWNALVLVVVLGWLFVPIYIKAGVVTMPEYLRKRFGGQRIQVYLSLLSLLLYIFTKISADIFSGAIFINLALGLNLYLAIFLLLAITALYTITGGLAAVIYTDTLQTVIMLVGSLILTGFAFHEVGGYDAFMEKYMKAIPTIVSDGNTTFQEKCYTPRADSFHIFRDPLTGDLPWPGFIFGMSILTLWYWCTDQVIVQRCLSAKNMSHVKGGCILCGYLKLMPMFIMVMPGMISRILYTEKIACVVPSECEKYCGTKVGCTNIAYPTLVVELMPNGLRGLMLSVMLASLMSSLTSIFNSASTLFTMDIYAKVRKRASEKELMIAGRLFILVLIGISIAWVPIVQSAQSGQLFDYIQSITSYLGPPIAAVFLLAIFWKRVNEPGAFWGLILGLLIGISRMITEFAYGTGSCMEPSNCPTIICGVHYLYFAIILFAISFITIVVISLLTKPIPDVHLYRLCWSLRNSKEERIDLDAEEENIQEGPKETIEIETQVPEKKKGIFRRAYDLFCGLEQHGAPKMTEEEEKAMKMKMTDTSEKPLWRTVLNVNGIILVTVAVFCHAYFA
Test: Determination of SGLT1 inhibitory activity ([14C]-AMG uptake in CHO cells expressing human SGLT1)
Type: cell-based
Conditions: CHO cells expressing human SGLT1, [14C]-AMG uptake, 37° C. for 1 hour
Protocol: Mock-transfected FIP-in CHO cells (3×10^4 cells) and CHO cells expressing human SGLT1 gene were seeded into 96-well plates respectively. The cells were incubated for 12 hours. Each well of the 96-well plates was washed with 150 μL of sodium-free buffer once. To each well was added 50 μL of sodium-containing buffer containing test compounds having different concentrations and 0.5 μm [^14C]-AMG And the mixture in the well was incubated at 37° C. for 1 hour. To each well was added 150 μL of precooled sodium-free buffer to terminate the reaction. The cell pellet was washed with sodium free buffer three times and the residual liquid in well was removed. To each well was added 20 μL of precooled 100 mM NaOH, and the 96-well plates were vibrated at 900 rpm for 5 minutes. Scintillation fluid (80 μL) was added to each well which was then vibrated at 600 rpm for 5 minutes. The amount of 14C-AMG was quantitatively detected using liquid scintillation.

| IC50 [nM] | Compound |
| --- | --- |
| 1.73 | Cc1ccc([C@]23OC[C@](C(C)(C)O)(O2)[C@@H](O)[C@H](O)[C@H]3O)cc1Cc1ccc(CCCC(=O)NC(C)(C)C(=O)NCCN2CCCC2)cc1 [Example 1, 2-Methyl-2-[4-[4-[[2-methyl-5-[(1S,2S,3S,4R,5S)-2,3,4-trihydroxy-1-(1-hydroxy-1-methyl-ethyl)-6,8-dioxabicyclo[3.2.1]octan-5-yl]phenyl]methyl]phenyl]butyrylamino]-N-(2-pyrrolidin-1-ylethyl)propionamide] |
| 5.75 | Cc1ccc([C@]23OC[C@](C(C)(C)O)(O2)[C@@H](O)[C@H](O)[C@H]3O)cc1Cc1ccc(CCCC(=O)N2CCC[C@H]2C(=O)NCCN(C)C)cc1 [Example 11, (2S)—N-(2-Dimethylaminoethyl)-1-[4-[4-[[2-methyl-5-[(1S,2S,3S,4R,5S)-2,3,4-trihydroxy-1-(1-hydroxy-1-methyl-ethyl)-6,8-dioxabicyclo[3.2.1]octan-5-yl]phenyl]methyl]phenyl]butyryl]pyrrolidine-2-carboxamide] |
| 1.16 | Cc1ccc([C@]23OC[C@](C(C)(C)O)(O2)[C@@H](O)[C@H](O)[C@H]3O)cc1Cc1ccc(CCCC(=O)NC2(C(=O)NCCN3CC[C@@H](F)C3)CCCCC2)cc1 [Example 7, N-[2-[(3R)-3-fluoropyrrolidin-1-yl]ethyl]-1-[4-[4-[[2-methyl-5-[(1S,2S,3S,4R,5S)-2,3,4-trihydroxy-1-(1-hydroxy-1-methyl-ethyl)-6,8-dioxabicyclo[3.2.1]octane-5-yl]phenyl]methyl]phenyl]butyrylamino]cyclohexyl formamide] |
